Read-outs that look alike come from different tables or passages of the source.
Legend:
[1] = target: human TYK2 (JH2domain-pseudokinase) (Homo sapiens (Human), UniProt P29597); test: TYK2 JH2 Domain Binding Assay (KINOMEscan)
In short: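 The construct was human TYK2 G556–D888 fused to the NFkB DNA-binding domain and expressed in HEK293 cells; unpurified extract was incubated with compound and liganded beads for 1 hour at room temperature.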

Tyk2 kinase domain (DH1) = Tyk2 kinase domain (DH1) (Homo sapiens (Human), UniProt P29597); test: Tyk2 Radioactive Kinase Assay; format: biochemical; details: for inhibition at 10 µM: read-out: Tyk2 JH1% Inhibition @ 10 μM
Tyk2 kinase domain (DH1), sequence (P29597 897-1176): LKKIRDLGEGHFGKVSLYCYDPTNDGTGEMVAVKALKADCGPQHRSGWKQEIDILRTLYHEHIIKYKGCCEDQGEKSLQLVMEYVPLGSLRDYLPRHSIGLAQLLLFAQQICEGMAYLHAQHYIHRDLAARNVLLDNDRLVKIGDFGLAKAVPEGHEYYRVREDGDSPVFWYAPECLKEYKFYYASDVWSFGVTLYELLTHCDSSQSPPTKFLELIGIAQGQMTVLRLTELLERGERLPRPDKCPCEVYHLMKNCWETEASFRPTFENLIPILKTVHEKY
In short: (§1)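 Read-out is percent inhibition from a radioactive kinase reaction, measured with compound at 10 μM.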

JAK2 kinase domain (JH1) = JAK2 kinase domain (JH1) (Homo sapiens (Human), UniProt O60674); test: JAK2 Radioactive Kinase Assay; format: biochemical; details: for inhibition at 10 µM: read-out: JAK2 JH1% Inhibition @ 10 μM
JAK2 kinase domain (JH1), sequence (O60674 849-1124): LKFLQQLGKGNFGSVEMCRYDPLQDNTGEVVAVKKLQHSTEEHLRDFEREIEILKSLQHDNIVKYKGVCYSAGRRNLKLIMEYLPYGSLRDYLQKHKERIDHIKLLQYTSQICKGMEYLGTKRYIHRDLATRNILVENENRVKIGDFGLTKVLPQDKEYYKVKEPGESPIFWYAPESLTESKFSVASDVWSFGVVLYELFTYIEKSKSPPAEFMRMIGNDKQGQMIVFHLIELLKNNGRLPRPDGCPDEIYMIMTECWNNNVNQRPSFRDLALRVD
In short: as §1

human TYK2 (JH2domain-pseudokinase), sequence (P29597 556-888): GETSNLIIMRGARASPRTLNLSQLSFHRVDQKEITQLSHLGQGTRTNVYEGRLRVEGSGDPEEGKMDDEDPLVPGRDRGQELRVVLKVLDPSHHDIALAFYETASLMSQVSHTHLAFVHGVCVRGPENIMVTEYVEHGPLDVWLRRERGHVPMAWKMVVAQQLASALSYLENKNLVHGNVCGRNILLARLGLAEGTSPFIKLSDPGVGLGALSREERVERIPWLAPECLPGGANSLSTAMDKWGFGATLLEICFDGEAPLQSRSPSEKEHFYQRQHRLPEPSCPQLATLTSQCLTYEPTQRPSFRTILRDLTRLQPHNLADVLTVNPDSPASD

SMILES	Kd [1]	inhibition at 10 µM (Tyk2 kinase domain (DH1); compound at 10 μM, ATP 10 μM)	inhibition at 10 µM (JAK2 kinase domain (JH1); compound at 10 μM, ATP 10 μM)	inhibition at 10 µM (Tyk2 kinase domain (DH1); 10 μM compound, 10 μM ATP)	inhibition at 10 µM (JAK2 kinase domain (JH1); 10 μM compound, 10 μM ATP)	Tyk2 JH1% Inhibition @ 10 μM (Tyk2 kinase domain (DH1); compound at 10 μM, ATP 10 μM)	JAK2 JH1% Inhibition @ 10 μM (JAK2 kinase domain (JH1); compound at 10 μM, ATP 10 μM)
CNc1cc(Nc2cccnc2OC)nc2c(C(=O)NC3COC3)cnn12 [I-83]	> 10 nM	< 50%	< 50%				
CNc1cc(Nc2cc(C)nc(N3CCCC3)c2)nc2c(C(N)=O)cnn12 [I-27]	1 to 10 nM	< 50%	< 50%				
CNc1cc(Nc2cccnc2OC)nc2c(C(=O)N[C@@H]3CC[C@@H]3O)cnn12 [I-430]	0.2 to 1 nM	< 50%	< 50%				
CNc1cc(Nc2cccnc2OC2CC2)nc2c(C(=O)N[C@H]3CC[C@H]3O)cnn12 [I-402]	0.2 to 1 nM	< 50%	< 50%				
CNc1cc(-c2cn(CCN3CCOCC3)c3ncccc23)nc2c(C(=O)N[C@H]3COC[C@H]3O)cnn12 (stereo in doubt) [I-791, N-(4-hydroxytetrahydrofuran-3-yl)-7-(methylamino)-5-(1-(2-morpholinoethyl)-1H-pyrrolo[2,3-b]pyridin-3-yl)pyrazolo[1,5-a]pyrimidine-3-carboxamide]	0.2 to 1 nM	< 50%	< 50%				
CNc1cc(Nc2cccn(CCOC3CC3)c2=O)nc2c(C(=O)NC3CC[C@H]3O)cnn12 (stereo in doubt) [I-515, 5-((1-(2-cyclopropoxyethyl)-2-oxo-1,2-dihydropyridin-3-yl)amino)-N-((1R,2R)-2-hydroxycyclobutyl)-7-(methylamino)pyrazolo[1,5-a]pyrimidine-3-carboxamide]	0.2 to 1 nM	< 50%	< 50%				
NC(=O)c1cnn2c(N)cc(Nc3ccnn(-c4ccc(F)cc4)c3=O)nc12 [I-70, 7-amino-5-((2-(4-fluorophenyl)-3-oxo-2,3-dihydropyridazin-4-yl)amino) pyrazolo[1,5-a]pyrimidine-3-carboxamide]	1 to 10 nM	< 50%	< 50%				
CNc1cc(Nc2cccn([C@@H]3CCN(CCC#N)C3)c2=O)nc2c(C(=O)NC3CC3)cnn12 [I-1012]	0.2 to 1 nM			< 50%	< 50%		
CNc1cc(Nc2cccn([C@H]3CC[C@H]3O)c2=O)nc2c(C(=O)NC3CC3)cnn12 [I-1103]	1 to 10 nM			< 50%	< 50%		
CNc1cc(Nc2cccn(C3CCCN(CCC#N)C3)c2=O)nc2c(C(=O)NC3CC3)cnn12 (stereo not drawn) [I-1009, 5-((1-(1-(2-cyanoethyl)piperidin-3-yl)-2-oxo-1,2-dihydropyridin-3-yl)amino)-N-cyclopropyl-7-(methylamino)pyrazolo[1,5-a]pyrimidine-3-carboxamide]	0.2 to 1 nM			< 50%	< 50%		
CNc1cc(Nc2cccnc2OC(F)F)nc2c(C(N)=O)cnn12 [I-152]	0.2 to 1 nM	< 50%	< 50%				
CNc1cc(-c2cn(CCN3CCOCC3)c3ncccc23)nc2c(C(=O)N[C@@H]3CC[C@@H]3O)cnn12 [I-779]	0.2 to 1 nM					A (percent inhibition at 10 μM lower than 50)	A (percent inhibition at 10 μM lower than 50)
CNc1cc(Nc2cc(F)cn(C3CCCOC3)c2=O)nc2c(C(=O)NC3CC3)cnn12 (stereo not drawn) [I-494]	0.2 to 1 nM	< 50%	< 50%				
CNc1cc(Nc2cccn([C@@H]3CCOC[C@@H]3OC)c2=O)nc2c(C(=O)NC3CC3)cnn12 [I-594]	0.2 to 1 nM					A (percent inhibition at 10 μM lower than 50)	A (percent inhibition at 10 μM lower than 50)
CNc1cc(Nc2cnn(C)c2)nc2c(C(N)=O)cnn12 [I-11]	1 to 10 nM	< 50%	< 50%				
NC(=O)c1cnn2c(N)cc(Nc3cc(Cl)cnc3OC3CCOC3)nc12 (stereo not drawn) [I-82, 7-amino-5-((5-chloro-2-((tetrahydrofuran-3-yl)oxy)pyridin-3-yl)amino) pyrazolo[1,5-a]pyrimidine-3-carboxamide]	1 to 10 nM	< 50%	< 50%				

Continued, in another order:

Kd [1]	inhibition at 10 µM (Tyk2 kinase domain (DH1); compound at 10 μM, ATP 10 μM)	inhibition at 10 µM (JAK2 kinase domain (JH1); compound at 10 μM, ATP 10 μM)	inhibition at 10 µM (Tyk2 kinase domain (DH1); 10 μM compound, 10 μM ATP)	inhibition at 10 µM (JAK2 kinase domain (JH1); 10 μM compound, 10 μM ATP)	SMILES	Tyk2 JH1% Inhibition @ 10 μM (Tyk2 kinase domain (DH1); compound at 10 μM, ATP 10 μM)	JAK2 JH1% Inhibition @ 10 μM (JAK2 kinase domain (JH1); compound at 10 μM, ATP 10 μM)
< 0.2 nM	< 50%	< 50%			CNc1cc(Nc2cccn(-c3nccs3)c2=O)nc2c(C(=O)NC3CCC3)cnn12 [I-242]		
< 0.2 nM	< 50%	< 50%			CNc1cc(Nc2cccc(N3CCOC3=O)n2)nc2c(C(N)=O)cnn12 [I-65]		
0.2 to 1 nM	< 50%	< 50%			CNc1cc(-c2cn(C(C)C)c3ncc(Cl)cc23)nc2c(C(=O)NC3CC3)cnn12 [I-253, 5-(5-chloro-1-isopropyl-1H-pyrrolo[2,3-b]pyridin-3-yl)-N-cyclopropyl-7-(methylamino)pyrazolo[1,5-a]pyrimidine-3-carboxamide]		
0.2 to 1 nM	< 50%	< 50%			CNc1cc(-c2nn(C3CCOC3)c3ncccc23)nc2c(C(=O)NC3CC3)cnn12 (stereo not drawn) [I-443]		
< 0.2 nM			< 50%	< 50%	CNc1cc(-c2cn(CCN3CCN(C)CC3)c3ncccc23)nc2c(C(=O)N[C@H]3CC[C@@H]3O)cnn12 (stereo in doubt) [I-852, N-(2-hydroxycyclobutyl)-7-(methylamino)-5-(1-(2-(4-methylpiperazin-1-yl)ethyl)-1H-pyrrolo[2,3-b]pyridin-3-yl)pyrazolo[1,5-a]pyrimidine-3-carboxamide]		
< 0.2 nM	< 50%	< 50%			CNc1cc(Nc2cc(C)cnc2OC(C)C)nc2c(C(=O)N[C@H]3C[C@H]3F)cnn12 [I-214]		
< 0.2 nM	< 50%	< 50%			CNc1cc(Nc2cccc(N3CCC4(CCCO4)CC3)n2)nc2c(C(=O)N[C@H]3CC[C@H]3O)cnn12 [I-721]		
< 0.2 nM	< 50%	< 50%			CNc1cc(Nc2cccn(-c3cnn(C[C@@H]4CCOC4)c3)c2=O)nc2c(C(=O)NC3CC3)cnn12 [I-600]		
< 0.2 nM			< 50%	< 50%	CNc1cc(-c2cn(C3CC3)c3ncccc23)nc2c(C(=O)N[C@H]3CC[C@H]3O)cnn12 [I-1080, 5-(1-cyclopropyl-1H-pyrrolo[2,3-b]pyridin-3-yl)-N-((1S,2R)-2-hydroxycyclobutyl)-7-(methylamino)pyrazolo[1,5-a]pyrimidine-3-carboxamide]		
< 0.2 nM			< 50%	< 50%	CNc1cc(-c2cn(CCN3CCCCC3)c3ncccc23)nc2c(C(=O)N[C@H]3CC[C@H]3O)cnn12 [I-875]		
< 0.2 nM			< 50%	< 50%	CNC(=O)c1occc1Nc1cc(NC)n2ncc(C(=O)N[C@H]3CC[C@@H]3OC)c2n1 (stereo in doubt) [I-1111, N-(2-methoxycyclobutyl)-7-(methylamino)-5-((2-(methylcarbamoyl)furan-3-yl)amino)pyrazolo[1,5-a]pyrimidine-3-carboxamide]		
< 0.2 nM	< 50%	< 50%			CNc1cc(Nc2cccn([C@H]3CCCOC3)c2=O)nc2c(C(=O)N[C@@H]3COC[C@@H]3O)cnn12 [I-785]		
< 0.2 nM	< 50%	< 50%			CNc1cc(Nc2cccn(C3CC4(COC4)C3)c2=O)nc2c(C(=O)NC3CC3)cnn12 [I-550]		
